Data taken from patent publication US10398672B2, “Methods and compositions for targeting cancer stem cells” (Whitehead Institute for Biomedical Research, priority 2014, dated 2019).

Test system: NAMEC cells transformed with Ras
Settings: mouse, in vivo

**Q.** cholera toxin was tested. Which “loss of tumor-initiating ability compared to untreated NAMEC cells” value did it give?
**A.** 100 fold
